Results as given in patent US4962109A, “Insecticidally and acaricidally active pyrimidine esters and intermediates therefor” (Imperial Chemical Industries PLC, priority 1985, dated 1990).

Legend:
Assay type in all cases: in vivo
[1] = system: Tetranychus urticae (spider mites - adult); assay: Contact test on spider mites - adult (TUa), French bean leaf, mortality; conditions: 72 h, contact, 3 days, read-out: TUa grading of mortality
Experimental: (§1) The activity of the Product was determined using a variety of insect pests. The Product was used in the form of liquid preparations containing 500, 250 or 100 parts per million (ppm) by weight of the Product. The preparations were made by dissolving the Product in acetone and diluting the solutions with water containing 0.01% by weight of a wetting agent sold under the trade name "LISSAPOL" NX until the liquid preparations contained the required concentration of the Product. "Lissapol" is a Registered Trade Mark.
(§2) The test procedure adopted with regard to each pest was basically the same and comprised supporting a number of the pests on a medium which was usually a host plant or a foodstuff on which the pests feed, and treating either or both the pests and the medium with the preparations. The mortality of the pests was then assessed at periods usually varying from one to three days after the treatment.
(§3) The results of the tests are given in Table III for each of the Products, at the rate in parts per million given in the second column as a grading of mortality designated as A, B or C wherein A indicates 80-100% mortality or knockdown, B indicates 50-79% mortality or knockdown and C indicates less than 50% mortality or knockdown.

[2] = system: Tetranychus urticae (spider mites - ova); assay: Contact test on spider mites - ova (TUe), French bean leaf, mortality; conditions: 144 h, contact, 6 days, read-out: TUe grading of mortality
Experimental: as §1, §2, §3

[3] = system: Myzus persicae (aphids); assay: Contact test on aphids (MP), Chinese Cabbage leaf, mortality; conditions: 72 h, contact, 3 days, read-out: MP grading of mortality
Experimental: as §1, §2, §3

[4] = system: Nephotettix cincticeps (green leaf hopper - nymphs); assay: Contact test on green leaf hopper nymphs (NC), Rice plant, mortality; conditions: 48 h, 500 ppm, contact, 2 days, read-out: NC grading of mortality
Experimental: as §1, §2, §3
NC Nephotettix cincticeps

[5] = system: Musca domestica (houseflies - adults); assay: Knockdown test on houseflies - adults (MD/KD), Cotton wool/sugar; conditions: 500 ppm, 4 hours, read-out: MD/KD grading of knockdown
Experimental: as §1, §2
In the case of the species Musca domestica (housefly), additional tests to determine the knockdown effect of the compounds were performed. PG,163
as §3

[6] = system: Musca domestica (houseflies - adults); assay: Contact test on houseflies - adults (MD), Cotton wool/sugar, mortality; conditions: 72 h, 500 ppm, contact, 3 days, read-out: MD grading of mortality
Experimental: as §1, §2, §3

[7] = system: Blattella germanica (cockroach nymphs); assay: Contact test on cockroach nymphs (BG/C), Plastic pot, mortality; conditions: 48 h, contact, 2 days, read-out: BG/C grading of mortality
Experimental: as §1, §2, §3
BG/C Blattella germanica

[8] = system: Heliothis virescens (tobacco budworm - larvae); assay: Residual test on tobacco budworm larvae (HV), Cotton leaf, mortality; conditions: 48 h, read-out: HV grading of mortality
Experimental: as §1, §2, §3
(tobacco budworm - larvae)

[9] = system: Spodoptera exigua (lesser army worm - larvae); assay: Residual test on lesser army worm larvae (SP), Cotton leaf, mortality; conditions: 48 h, residual, 2 days, read-out: SP grading of mortality
Experimental: as §1, §2, §3
(lesser army worm - larvae)

[10] = system: Diabrotica balteata (rootworm larvae); assay: Residual test on rootworm larvae (DB), Filter paper/maize seed, mortality; conditions: 48 h, residual, 2 days, read-out: DB grading of mortality
Experimental: as §1, §2, §3

COCc1c(F)c(F)c(COC(=O)C(c2cnc(C3(C)CC3)nc2)C(C)(C)C)c(F)c1F (racemic) [Compound 139, 2,3,5,6-tetrafluoro-4-(methoxymethyl)benzyl (RS)-2-[2-(1-methylcyclopropyl)pyrimidin-5-yl]-3,3-dimethylbutanoate]
mortality at 500 ppm [1]: 80 to 100%
mortality at 500 ppm [2]: < 50%
mortality at 500 ppm [3]: 80 to 100%
mortality at 500 ppm [4]: 80 to 100%
pest or weed control at 500 ppm [5]: 80 to 100%
mortality at 500 ppm [6]: 80 to 100%
mortality at 500 ppm [7]: 80 to 100%
mortality at 500 ppm [8]: 80 to 100%
mortality at 500 ppm [9]: 80 to 100%
mortality at 500 ppm [10]: < 50%

COCc1c(F)c(F)c(COC(=O)C(c2cnc(C(C)C)nc2)C(C)(C)C)c(OC)c1F (racemic) [Compound 76, 3,5,6-trifluoro-2-methoxy-4-(methoxymethyl)benzyl (RS)-2-[2-(1-methylethyl)pyrimidin-5-yl]-3,3-dimethylbutanoate]
mortality at 500 ppm [1]: 80 to 100%
mortality at 500 ppm [2]: < 50%
mortality at 500 ppm [3]: 80 to 100%
mortality at 500 ppm [4]: 80 to 100%
pest or weed control at 500 ppm [5]: 80 to 100%
mortality at 500 ppm [6]: 50 to 79%
mortality at 500 ppm [7]: 50 to 79%
mortality at 500 ppm [8]: 80 to 100%
mortality at 500 ppm [9]: 80 to 100%
mortality at 500 ppm [10]: < 50%

C=CC(C)(C)C(C(=O)OCc1c(F)c(F)c(COC)c(F)c1F)c1cnc(C(C)(C)C)nc1 (racemic) [Compound 211, 4-(methoxymethyl)-2,3,5,6-tetrafluorobenzyl (RS)-2-[2-(1,1-dimethylethyl)pyrimidin-5-yl]-3,3-dimethylpent-4-enoate]
mortality at 500 ppm [1]: 80 to 100%
mortality at 500 ppm [2]: 80 to 100%
mortality at 500 ppm [3]: 80 to 100%
mortality at 500 ppm [4]: 80 to 100%
pest or weed control at 500 ppm [5]: 80 to 100%
mortality at 500 ppm [6]: < 50%
mortality at 500 ppm [7]: < 50%
mortality at 500 ppm [8]: < 50%
mortality at 500 ppm [9]: 80 to 100%
mortality at 500 ppm [10]: < 50%

CC(C)(C)C(C(=O)OCc1ccc(F)c(Oc2ccccc2)c1)c1cnc(C2CC2)nc1 (racemic) [Compound 201, 4-fluoro-3-phenoxybenzyl (RS)-2-(2-cyclopropylpyrimidin-5-yl)-3,3-dimethylbutanoate]
mortality at 500 ppm [1]: 80 to 100%
mortality at 500 ppm [2]: 50 to 79%
mortality at 500 ppm [3]: 80 to 100%
mortality at 500 ppm [4]: 80 to 100%
pest or weed control at 500 ppm [5]: 80 to 100%
mortality at 500 ppm [6]: 80 to 100%
mortality at 500 ppm [7]: 50 to 79%
mortality at 500 ppm [8]: 80 to 100%
mortality at 500 ppm [9]: 80 to 100%
mortality at 500 ppm [10]: 80 to 100%

CCCc1c(F)c(F)c(COC(=O)C(c2cnc(C(C)(C)C)nc2)C(C)(C)C)c(F)c1F (racemic) [Compound 168, 4-(n-propyl)-2,3,5,6-tetrafluorobenzyl (RS)-2-[2-(1,1-dimethylethyl)pyrimidin-5-yl]-3,3-dimethylbutanoate]
mortality at 500 ppm [1]: 80 to 100%
mortality at 500 ppm [2]: 80 to 100%
mortality at 500 ppm [3]: 80 to 100%
mortality at 500 ppm [4]: 80 to 100%
pest or weed control at 500 ppm [5]: < 50%
mortality at 500 ppm [6]: < 50%
mortality at 500 ppm [7]: < 50%
mortality at 500 ppm [8]: 50 to 79%
mortality at 500 ppm [9]: 50 to 79%
mortality at 500 ppm [10]: < 50%

CC(C)(C)c1ncc(C(C(=O)OCc2ccc(F)c(Cc3ccccc3)c2)C(C)(C)C)cn1 (racemic) [Compound 18, 3-benzyl-4-fluorobenzyl (RS)-2-[2-(1,1-dimethylethyl)pyrimidin-5-yl]-3,3-dimethylbutanoate]
mortality at 500 ppm [1]: 80 to 100%
mortality at 500 ppm [2]: < 50%
mortality at 500 ppm [3]: 80 to 100%
mortality at 500 ppm [4]: 80 to 100%
pest or weed control at 500 ppm [5]: 80 to 100%
mortality at 500 ppm [6]: < 50%
mortality at 500 ppm [7]: < 50%
mortality at 500 ppm [8]: 80 to 100%
mortality at 500 ppm [9]: 80 to 100%
mortality at 500 ppm [10]: 80 to 100%

CSCc1c(F)c(F)c(COC(=O)C(c2cnc(C(C)(C)C)nc2)C(C)(C)C)c(F)c1F (racemic) [Compound 169, 4-(methylthiomethyl)-2,3,5,6-tetrafluorobenzyl (RS)-2-[2-(1,1-dimethylethyl)pyrimidin-5-yl]-3,3-dimethylbutanoate]
mortality at 500 ppm [1]: 80 to 100%
mortality at 500 ppm [2]: 80 to 100%
mortality at 500 ppm [3]: 80 to 100%
mortality at 500 ppm [4]: 80 to 100%
pest or weed control at 500 ppm [5]: 80 to 100%
mortality at 500 ppm [6]: 80 to 100%
mortality at 500 ppm [7]: < 50%
mortality at 500 ppm [8]: < 50%
mortality at 500 ppm [9]: 80 to 100%
mortality at 500 ppm [10]: < 50%

C#CCc1c(F)c(F)c(COC(=O)C(c2cnc(C(C)(C)C)nc2)C2CC2)c(F)c1F (racemic) [Compound 91, 2,3,5,6-tetrafluoro-4-(prop-2-yn-1-yl)benzyl (RS)-2-[2-(1,1-dimethylethyl)pyrimidin-5-yl]-2-cyclopropylacetate]
mortality at 500 ppm [1]: 80 to 100%
mortality at 500 ppm [2]: 80 to 100%
mortality at 500 ppm [3]: 80 to 100%
mortality at 500 ppm [4]: 80 to 100%
pest or weed control at 500 ppm [5]: 80 to 100%
mortality at 500 ppm [6]: 80 to 100%
mortality at 500 ppm [7]: 80 to 100%
mortality at 500 ppm [8]: 80 to 100%
mortality at 500 ppm [9]: 80 to 100%
mortality at 500 ppm [10]: 80 to 100%

COCc1c(F)c(F)c(COC(=O)C(c2cnc(-c3ccccc3)nc2)C(C)(C)C)c(F)c1F (racemic) [Compound 161, 2,3,5,6-tetrafluoro-4-(methoxymethyl)benzyl (RS)-2-(2-phenylpyrimidin-5-yl)-3,3-dimethylbutanoate]
mortality at 500 ppm [1]: 80 to 100%
mortality at 500 ppm [2]: 80 to 100%
mortality at 500 ppm [3]: 80 to 100%
mortality at 500 ppm [4]: 80 to 100%
pest or weed control at 500 ppm [5]: 80 to 100%
mortality at 500 ppm [6]: 80 to 100%
mortality at 500 ppm [7]: 50 to 79%
mortality at 500 ppm [8]: < 50%
mortality at 500 ppm [9]: 80 to 100%
mortality at 500 ppm [10]: 50 to 79%

CCC(C)(C)C(C(=O)OCc1c(F)c(F)c(COC)c(F)c1F)c1cnc(C(C)(C)C)nc1 (racemic) [Compound 210, 4-methoxymethyl-2,3,5,6-tetrafluorobenzyl (RS)-2-[2-(1,1-dimethylethyl)-pyrimidin-5-yl]-3,3-dimethylpentanoate]
mortality at 100 ppm ([1]; 100 ppm): 80 to 100%
mortality at 100 ppm ([2]; 100 ppm): 80 to 100%
mortality at 100 ppm ([3]; 100 ppm): < 50%
mortality at 100 ppm ([7]; 100 ppm): < 50%
mortality at 100 ppm [8]: < 50%
mortality at 100 ppm ([9]; 100 ppm): < 50%
mortality at 100 ppm ([10]; 100 ppm): < 50%

CCOCc1c(F)c(F)c(COC(=O)C(c2cnc(C(C)(C)C)nc2)C(C)(C)C)c(F)c1F (racemic) [Compound 186, 2,3,5,6-tetrafluoro-4-(ethoxymethyl)benzyl (RS)-2-[2-(1,1-dimethylethyl)pyrimidin-5-yl]-3,3-dimethylbutanoate]
mortality at 500 ppm [1]: 80 to 100%
mortality at 500 ppm [2]: < 50%
mortality at 500 ppm [3]: 80 to 100%
mortality at 500 ppm [4]: 80 to 100%
pest or weed control at 500 ppm [5]: 80 to 100%
mortality at 500 ppm [6]: < 50%
mortality at 500 ppm [7]: < 50%
mortality at 500 ppm [8]: 80 to 100%
mortality at 500 ppm [9]: 80 to 100%
mortality at 500 ppm [10]: < 50%

CC(C)(C)c1ncc(C(C(=O)OCc2c(F)c(F)c(CCl)c(F)c2F)C(C)(C)C)cn1 (racemic) [Compound 167, 4-chloromethyl-2,3,5,6-tetrafluorobenzyl (RS)-2-[2-(1,1-dimethylethyl)pyrimidin-5-yl]-3,3-dimethylbutanoate]
mortality at 500 ppm [1]: 80 to 100%
mortality at 500 ppm [2]: 80 to 100%
mortality at 500 ppm [3]: 80 to 100%
pest or weed control at 500 ppm [5]: < 50%
mortality at 500 ppm [6]: < 50%
mortality at 500 ppm [7]: < 50%
mortality at 500 ppm [8]: 80 to 100%
mortality at 500 ppm [9]: 80 to 100%
mortality at 500 ppm [10]: 80 to 100%

CC(C)(C)c1ncc(C(C(=O)OCN2C(=O)C3=C(CCCC3)C2=O)C(C)(C)C)cn1 (racemic) [Compound 6, N-3,4,5,6-tetrahydrophthalimidomethyl (RS)-2-[2-(1,1-dimethylethyl)pyrimidin-5-yl]-3,3-dimethylbutanoate]
mortality at 500 ppm [1]: 80 to 100%
mortality at 500 ppm [3]: < 50%
mortality at 500 ppm [4]: < 50%
pest or weed control at 500 ppm [5]: < 50%
mortality at 500 ppm [6]: < 50%
mortality at 500 ppm [7]: < 50%
mortality at 500 ppm [8]: < 50%
mortality at 500 ppm [9]: < 50%
mortality at 500 ppm [10]: 50 to 79%
